ChEMBL document CHEMBL3745615, “Synthesis, characterization and biological evaluation of anti-cancer indolizine derivatives via inhibiting β-catenin activity and activating p53” (2016)

Legend:
[1] = target: T1, Catenin beta-1 (Homo sapiens) (UniProt P35222); test: Inhibition of beta-catenin transcriptional activity in human A549 cells after 24 hrs by luciferase reporter assay; type: cell-based; set-up: concentration or dose not given beside the values
T1 sequence (whole entry): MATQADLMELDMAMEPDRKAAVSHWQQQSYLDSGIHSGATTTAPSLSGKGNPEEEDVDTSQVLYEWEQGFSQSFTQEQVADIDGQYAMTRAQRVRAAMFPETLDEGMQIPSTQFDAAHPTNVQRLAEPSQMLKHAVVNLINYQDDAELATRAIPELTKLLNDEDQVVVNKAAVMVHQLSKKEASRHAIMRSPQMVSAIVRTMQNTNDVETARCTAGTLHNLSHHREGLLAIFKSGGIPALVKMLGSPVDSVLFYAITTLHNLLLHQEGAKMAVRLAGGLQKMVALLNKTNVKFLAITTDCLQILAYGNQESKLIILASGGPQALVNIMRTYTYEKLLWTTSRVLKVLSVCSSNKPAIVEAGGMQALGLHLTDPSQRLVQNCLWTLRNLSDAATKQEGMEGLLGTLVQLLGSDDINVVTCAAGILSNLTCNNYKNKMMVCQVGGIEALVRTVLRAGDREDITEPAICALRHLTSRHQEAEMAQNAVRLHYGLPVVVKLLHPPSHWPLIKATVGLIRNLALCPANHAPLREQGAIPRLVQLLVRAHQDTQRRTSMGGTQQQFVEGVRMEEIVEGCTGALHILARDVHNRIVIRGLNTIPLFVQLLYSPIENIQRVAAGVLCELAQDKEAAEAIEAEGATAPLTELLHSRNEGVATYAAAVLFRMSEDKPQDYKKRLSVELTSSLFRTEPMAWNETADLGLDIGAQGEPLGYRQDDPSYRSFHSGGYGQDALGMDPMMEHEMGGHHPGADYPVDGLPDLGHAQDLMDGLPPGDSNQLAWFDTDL

[2] = tested on: A549; test: Antiproliferative activity against human A549 cells after 3 days by CCK8 assay; type: functional; set-up: concentration or dose not given beside the values
[3] = tested on: A549; test: Induction of apoptosis in human A549 cells assessed as dead cells at 3 uM after 3 days by annexin V staining-based flow cytometric analysis (reference value: 0.2%); type: functional
[4] = tested on: A549; test: Induction of apoptosis in human A549 cells assessed as up regulation of phosphorylated p53 (S15) level at 3 uM incubated for 12 to 24 hrs by Western blot analysis; type: functional, cell-based; conditions: TDE = time-dependent effect
[5] = tested on: A549; test: Induction of apoptosis in human A549 cells assessed as early apoptotic cells at 3 uM after 1 day by annexin V staining-based flow cytometric analysis (reference value: 1.3%); type: functional
[6] = tested on: A549; test: Induction of apoptosis in human A549 cells assessed as live cells at 3 uM after 2 days by annexin V staining-based flow cytometric analysis (reference value: 98%); type: functional
[7] = tested on: A549; test: Induction of apoptosis in human A549 cells assessed as dead cells at 3 uM after 1 day by annexin V staining-based flow cytometric analysis (reference value: 0.2%); type: functional
[8] = tested on: A549; test: Induction of apoptosis in human A549 cells assessed as early apoptotic cells at 3 uM after 2 days by annexin V staining-based flow cytometric analysis (reference value: 1.3%); type: functional
[9] = tested on: A549; test: Induction of apoptosis in human A549 cells at 3 uM by annexin V staining-based flow cytometric analysis; type: functional, cell-based; conditions: TDE = time-dependent effect
[10] = tested on: A549; test: Induction of apoptosis in human A549 cells assessed as late apoptotic cells at 3 uM after 1 day by annexin V staining-based flow cytometric analysis (reference value: 0.5%); type: functional
[11] = tested on: A549; test: Induction of apoptosis in human A549 cells assessed as live cells at 3 uM after 1 day by annexin V staining-based flow cytometric analysis (reference value: 98%); type: functional
[12] = tested on: A549; test: Induction of apoptosis in human A549 cells assessed as late apoptotic cells at 3 uM after 3 days by annexin V staining-based flow cytometric analysis (reference value: 0.5%); type: functional
[13] = tested on: A549; test: Induction of apoptosis in human A549 cells assessed as late apoptotic cells at 3 uM after 2 days by annexin V staining-based flow cytometric analysis (reference value: 0.5%); type: functional
[14] = tested on: A549; test: Induction of apoptosis in human A549 cells assessed as dead cells at 3 uM after 2 days by annexin V staining-based flow cytometric analysis (reference value: 0.2%); type: functional
[15] = tested on: A549; test: Induction of apoptosis in human A549 cells assessed as up regulation of phosphorylated p53 (S46) level at 3 uM incubated for 12 to 24 hrs by Western blot analysis; type: functional, cell-based; conditions: TDE = time-dependent effect
[16] = tested on: A549; test: Induction of apoptosis in human A549 cells assessed as early apoptotic cells at 3 uM after 3 days by annexin V staining-based flow cytometric analysis (reference value: 1.3%); type: functional
[17] = tested on: A549; test: Induction of apoptosis in human A549 cells assessed as live cells at 3 uM after 3 days by annexin V staining-based flow cytometric analysis (reference value: 98%); type: functional
[18] = tested on: A549; test: Induction of apoptosis in human A549 cells assessed as up regulation of phosphorylated p53 (S392) level at 3 uM incubated for 12 to 24 hrs by Western blot analysis; type: functional, cell-based; conditions: TDE = time-dependent effect

Activity [1] | SMILES | Activity [2] | other results
67.5% | COc1ccc(C(=O)c2c3c(cc4cccn24)C(=O)CCC3)cc1 | 51.36% | –
47% | CCOC(=O)c1c(N)c(C#N)cc2cccn12 | 85.35% | –
69.1% | N#Cc1cc2cccn2c(C(=O)c2ccc(OCc3ccccc3)cc2)c1N | 35.05% | –
90.3% | CC(=O)c1cc2cccn2c(C(=O)c2ccccc2)c1C | 92.02% | –
22.2% | N#Cc1cc2cccn2c(C(=O)c2ccc(F)cc2)c1N | 1.51% | –
67.3% | O=C1CCCc2c1cc1cccn1c2C(=O)c1ccccc1 | 55.44% | –
64.5% | O=C1CCCc2c1cc1cccn1c2C(=O)c1ccc(Cl)cc1 | 47.73% | –
66.2% | O=C1CCCc2c1cc1cccn1c2C(=O)c1ccc(F)cc1 | 40.94% | –
26.2% | N#Cc1cc2cccn2c(C(=O)c2ccccc2)c1N | 13.75% | –
13.6% | N#Cc1cc2cccn2c(C(=O)c2ccc(Cl)cc2)c1N | 2.87% | –
86.4% | CCOC(=O)c1cc2cccn2c(C(=O)c2ccc(OC)cc2)c1N | 98.46% | –
52.9% | CC(=O)c1cc2cccn2c(C(=O)c2ccc(Cl)cc2)c1C | 79.46% | –
79.1% | Cc1c(C(=O)O)cc2cccn2c1C(=O)c1ccccc1 | 101.93% | –

SMILES | Activity [1] | Activity [2] | other results
COc1ccc(C(=O)c2c(N)c(C#N)cc3cccn23)cc1 | 7.03% | Dose-dependent effect | Activity [3]: 0.95%; Activity [4]: tde; Activity [5]: 8%; Activity [6]: 73.35%; Activity [7]: 1.15%; Activity [8]: 14.7%; Activity [9]: tde; Activity [10]: 2.3%; Activity [11]: 88.55%; Activity [12]: 43.65%; Activity [13]: 9.7%; Activity ([2]; record 2): 0%; Activity [14]: 2.25%; Activity [15]: tde; Activity [16]: 15.6%; Activity [17]: 39.8%; Activity [18]: tde
